# Assay results: paper PMC8041284, “Tunable Methacrylamides for Covalent Ligand Directed Release Chemistry” (Journal of the American Chemical Society, 2021)
# Molecular target: BTK (Homo sapiens, UniProt Q06187)
# Experiment: biochemical
# Settings: read-out: BTK inhibition (%)
# Chain of BTK (Q06187 402-655 limits assumed): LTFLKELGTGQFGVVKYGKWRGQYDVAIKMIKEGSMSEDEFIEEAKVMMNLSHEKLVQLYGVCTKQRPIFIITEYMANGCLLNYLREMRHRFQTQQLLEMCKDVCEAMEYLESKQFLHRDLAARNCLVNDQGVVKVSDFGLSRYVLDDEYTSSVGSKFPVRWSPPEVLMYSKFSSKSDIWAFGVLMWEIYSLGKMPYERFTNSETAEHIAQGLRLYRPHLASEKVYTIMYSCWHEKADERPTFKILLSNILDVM
row,Compound,inhibition at 10 µM [%]
1,O=C1C([C@@H]2O[C@H](CO)[C@@H](O)[C@H](O)[C@H]2O)=C(O)/C(=C(O)/C=C/c2ccc(O)cc2)C(=O)C1(O)[C@@H]1O[C@H](CO)[C@@H](O)[C@H](O)[C@H]1O (some centres unmarked) [PCM-0216360],23.9

# Same assay, conditions: read-out: BTK inhibition (%), 0.75 uM BTK, […] probe 3l, 15 min preincubation
row,Compound,inhibition at 10 µM [%]
1,C=C(C)[C@@H]1CC[C@]2(C(=O)O[C@@H]3O[C@H](CO[C@@H]4O[C@H](CO)[C@@H](O[C@@H]5O[C@@H](C)[C@H](O)[C@@H](O)[C@H]5O)[C@H](O)[C@H]4O)[C@@H](O)[C@H](O)[C@H]3O)CC[C@]3(C)[C@H](CC[C@@H]4[C@@]5(C)CC[C@H](O[C@@H]6OC[C@H](O)[C@H](O)[C@H]6O[C@@H]6O[C@@H](C)[C@H](O)[C@@H](O)[C@H]6O)[C@@](C)(CO)[C@@H]5CC[C@]43C)[C@@H]12 [PCM-0216377],-42.6
2,C=CCc1cccc(/C=N/NC(=O)CN2CCN(Cc3ccccc3)CC2)c1O [PCM-0064890],9
3,COc1ccc(Cn2ccc3ccc(C(=O)NO)cc32)cc1 [PCM-0095291],33.5
4,Nc1nc2c(ncn2COC(CO)CO)c(=O)[nH]1 [PCM-0065253],-3.9
5,c1cc(-c2cnn3cc(-c4ccc(N5CCNCC5)cc4)cnc23)c2cccnc2c1 [PCM-0095784],3.9
6,CNC(=O)c1ccccc1Nc1cc(Nc2ccc(N3CCOCC3)cc2OC)ncc1C(F)(F)F [PCM-0215412],63.4
7,CN1C(CCl)Nc2cc(Cl)c(S(N)(=O)=O)cc2S1(=O)=O (centres unmarked) [PCM-0095604],-2.3
8,N=C1S/C(=C\c2ccc(-c3ccc4c(c3)C(=O)NC4=O)o2)C(=O)N1c1ccc(Br)cc1 [PCM-0215801],27
9,Oc1ccc(CC2NCCc3cc(O)c(O)cc32)cc1 (centres unmarked) [PCM-0214948],-5.4
10,CCCCc1nc(Cl)c(CO)n1Cc1ccc(-c2ccccc2-c2nnn[nH]2)cc1 [PCM-0086291],-10.9
11,CC(C)NC(=O)C1CCC(n2c(NC(=O)c3ccc(F)cc3)nc3ccc(CN4CCC(C(C)(C)O)CC4)cc32)CC1 (centres unmarked) [PCM-0215859],53.1
12,CCCCCCCCCCCCCCCCCCCCCCCCCCCCO [PCM-0215950],-11.1
13,COc1ncnc(NS(=O)(=O)c2ccc(N)cc2)c1OC [PCM-0086280],0.8
14,O=C(O)CSCC(=O)NC1CCSC1=O (centres unmarked) [PCM-0090679],-10.9
15,C[C@H]1Oc2cc(cnc2N)-c2c(nn(C)c2C#N)CN(C)C(=O)c2ccc(F)cc21 [PCM-0215394],17.9
16,CCCc1cc(C)[nH]c(=O)c1CNC(=O)c1cc(-c2ccc(N3CCN(C)CC3)nc2)nc2c1cnn2C(C)C [PCM-0215988],15.4
17,Nc1nc(-c2ccco2)c2cnn(Cc3ccccc3F)c2n1 [PCM-0215878],5.4
18,N#CNC(=NCCCCCCOc1ccc(Cl)cc1)Nc1ccncc1 [PCM-0215563],18.5
19,CSCCNc1nc(SCCC(F)(F)F)nc2c1ncn2[C@@H]1O[C@H](COP(=O)(O)OP(=O)(O)C(Cl)(Cl)P(=O)(O)O)[C@@H](O)[C@H]1O [PCM-0215886],-50.2
20,COc1ccc(-n2nc(C(N)=O)c3c2C(=O)N(c2ccc(N4CCCCC4=O)cc2)CC3)cc1 [PCM-0095150],-7.8
21,CC1(C)S[C@@H]2[C@H](NC(=O)[C@H](N)c3ccccc3)C(=O)N2[C@H]1C(=O)O [PCM-0214636],-1.6
22,COC(=O)N(C)c1c(N)nc(-c2nn(Cc3ccccc3F)c3ncccc23)nc1N [PCM-0215574],-25.5
23,Cc1cc2c(C(=O)NC[C@H](C)c3ccccc3)c(O)c(O)cc2c(O)c1-c1c(C)cc2c(C(=O)NC[C@H](C)c3ccccc3)c(O)c(O)cc2c1O [PCM-0215358],113

row,Compound,inhibition at 10 µM [%]
1,C/C(=C(/CCOC(=O)C(C)C)SS/C(CCOC(=O)C(C)C)=C(\C)N(C=O)Cc1cnc(C)nc1N)N(C=O)Cc1cnc(C)nc1N [PCM-0216636],-16.2
2,O=C(O)c1cccnc1Nc1cccc(C(F)(F)F)c1 [PCM-0064877],24.1
3,CC(C)c1c(C(=O)Nc2ccccc2)c(-c2ccccc2)c(-c2ccc(F)cc2)n1CC[C@@H](O)C[C@@H](O)CC(=O)O [PCM-0064680],10.1
4,CC(=O)O[C@@]12CO[C@@H]1C[C@H](O)[C@@]1(C)C(=O)[C@H](O)C3=C(C)[C@@H](O)C[C@@](O)([C@@H](OC(=O)c4ccccc4)[C@H]21)C3(C)C [PCM-0095302],9.3
5,O=C(/C=C/c1ccc(O)c2c1[C@H](C(=O)O)[C@@H](c1ccc(O)c(O)c1)O2)O[C@H](Cc1ccc(O)c(O)c1)C(=O)O [PCM-0216504],8.5
6,CCOC(=O)C1=C(C)NC(C)=C(C(=O)OCC)C1c1ccccc1/C=C/C(=O)OC(C)(C)C [PCM-0085989],16.3
7,Nc1ccc(O)cc1 [PCM-0216110],82.6
8,CN1CCC(=C2c3ccccc3C=Cc3ccccc32)CC1 [PCM-0064430],-9.3
9,CO[C@@H]1[C@@H](O[C@@H]2O[C@H](C)[C@@H](O[C@H]3C[C@@](C)(O)[C@@H](O)[C@H](C)O3)[C@H](N(C)C)[C@H]2O)[C@@H](CC=O)C[C@@H](C)[C@@H](O)/C=C/C=C/C[C@@H](C)OC(=O)C[C@H]1O [PCM-0214884],6.2
10,C[C@@H]1CCCC2=CC(=O)[C@@H]3[C@@H](C3(C)C)[C@]21C [PCM-0216523],-8.5
11,CC(C)c1ccccc1Cc1cc(C(=O)Nc2ccc(S(=O)(=O)c3ccccc3C(C)(C)C)cc2)c(O)c(O)c1O [PCM-0094924],54.5
12,C/C=C/c1cc(OC)c2c(c1)C(C)C(c1ccc(O)c(OC)c1)O2 (centres unmarked) [PCM-0216391],19.3
13,COCCn1c2c([n+](Cc3cnccn3)c1C)C(=O)c1ccccc1C2=O [PCM-0094937],-17.9
14,Nc1nc(F)nc2c1ncn2[C@@H]1O[C@H](CO)[C@@H](O)[C@@H]1O [PCM-0086227],-19.5
15,CC(C)c1cnn2c(NCc3ccccc3-n3cccn3)nc(OC3CCCNC3)nc12 (centres unmarked) [PCM-0215792],-2.8
16,CCc1c(C(=O)C(N)=O)c2c(OCC(=O)O)cccc2n1Cc1ccccc1 [PCM-0094894],-16.3
17,CCOC(=O)c1c2c3c(cccc3[nH]c1=O)C(=O)c1ccccc1-2 [PCM-0215657],-20.1
18,O=C(/C=C/c1ccc(O)c(O)c1/C=C/c1ccc(O)c(O)c1)O[C@H](Cc1ccc(O)c(O)c1)C(=O)O [PCM-0216354],30.9
19,CNC[C@H](O)c1cccc(O)c1 [PCM-0064848],-20.2
20,O=C1NC(=O)/C(=C\c2ccc(-c3ccc(F)cc3)o2)S1 [PCM-0095359],11
21,O=C(/C=C/C=C/c1ccccc1)CCc1ccccc1 [PCM-0216550],4.6
22,NCCCC(O)(P(=O)(O)O)P(=O)(O)O [PCM-0215186],0.9
23,C[C@@H]([C@H](C)O)[C@H](N)C(=O)O [PCM-0216300],-12.4

row,Compound,inhibition at 10 µM [%]
1,CC(C)[C@H](N)C(=O)OCCOCn1cnc2c(=O)[nH]c(N)nc21 [PCM-0086005],-7.8
2,CC(=O)O[C@H]1C(=O)[C@]2(C)[C@H](O)C[C@H]3OC[C@@]3(OC(C)=O)[C@H]2[C@H](OC(=O)c2ccccc2)[C@]2(O)C[C@H](OC(=O)[C@H](O)[C@@H](NC(=O)c3ccccc3)c3ccccc3)C(C)=C1C2(C)C [PCM-0216508],16.2
3,COc1cc2c(cc1OC)[C@H]1C[C@@H](OC(=O)[C@@H](N)C(C)C)[C@H](CC(C)C)CN1CC2 [PCM-0216567],-27
4,Cc1ncc(-c2ccnc(Nc3ccc(S(C)(=O)=O)cc3)n2)n1C(C)C [PCM-0095478],48.3
5,CN([C@@H](Cc1ccc(OS(=O)(=O)c2cccc3cnccc23)cc1)C(=O)N1CCN(c2ccccc2)CC1)S(=O)(=O)c1cccc2cnccc12 [PCM-0215309],2.1
6,O=C1C2CCN(CC2)C1(CO)CO [PCM-0215683],0.8
7,CN[C@@H](C)C(=O)N[C@H](C(=O)N1CCC[C@H]1c1nc(C(=O)c2ccc(F)cc2)cs1)C1CCCCC1 [PCM-0215366],-11.6
8,Cc1ccc(C(=O)O)c(O)c1 [PCM-0216186],10
9,NC(=O)Nc1sc(-c2ccc(F)cc2)cc1C(N)=O [PCM-0095452],96.6
10,CCCCCCCCCCCCCc1cccc(O)c1C(=O)O [PCM-0216334],34
11,C[C@@H](N)C(=O)N[C@@H](CO)C(=O)N[C@H](C(=O)N[C@H](C(=O)N[C@H](C(=O)N[C@@H](CC(N)=O)C(=O)N[C@@H](Cc1ccc(O)cc1)C(=O)N[C@H](C(N)=O)[C@@H](C)O)[C@@H](C)O)[C@@H](C)O)[C@@H](C)O [PCM-0215819],11.1
12,CO/N=C1\C[C@]2(C[C@@H]3C[C@@H](C/C=C(\C)C[C@@H](C)/C=C/C=C4\CO[C@@H]5[C@H](O)C(C)=C[C@@H](C(=O)O3)[C@]45O)O2)O[C@H](/C(C)=C/C(C)C)[C@H]1C [PCM-0214892],16.3
13,CC(C)(C)NS(=O)(=O)c1cncc(-c2cc(F)c3nc(N)nn3c2)c1 [PCM-0215240],-4.8
14,O=C(c1cncc(Br)c1)N1CCC(N2CCCC2)CC1 [PCM-0095791],5.4
15,COC(=O)[C@@H]1CC2=CC(=O)CC[C@]2(C)[C@@]23O[C@@H]2C[C@@]2(C)[C@@H](CC[C@@]24CCC(=O)O4)[C@H]13 [PCM-0215188],-18.7
16,C[C@H]1C[C@@H]2[C@H]([C@@H](O)C[C@@]3(C)[C@H]2CC[C@]3(O)C(=O)CO)[C@@]2(C)C=CC(=O)C=C12 [PCM-0085838],9
17,Nc1ncnc2c1ncn2[C@@H]1O[C@H](CO)C[C@H]1O [PCM-0101885],42
18,C=C1[C@H](O)C[C@H]2[C@@H](/C=C(\C)C(=O)[C@@]3(O)C[C@H](C)[C@H](O)[C@@H]3[C@H]1O)C2(C)C [PCM-0216654],-8.6
19,O=C1CCc2cc(OCCCCc3nnnn3C3CCCCC3)ccc2N1 [PCM-0064629],-19.5
20,CC(=O)O[C@@H]1C[C@H](O)[C@@]23CO[C@@H](O)[C@]1(C)[C@@H]2C[C@@H](O)[C@]1(C)[C@@H]3C(=O)[C@H](OC(C)=O)[C@@]2(C)[C@H](c3ccoc3)C[C@H]3O[C@]321 [PCM-0216537],-15.4
21,CCCOC(C(=O)OC1CCN(C)CC1)(c1ccccc1)c1ccccc1 [PCM-0215115],-24.1
